In PubChem BioAssay AID1918996 (Molecular Pharmacology Branch, DTP, NCI, 2023):

Test system: 349418-098-R-PDC complex spheroid growth
Assay: Anticancer human tumor 349418-098-R-PDC patient-derived lung adenocarcinoma cell line growth inhibition [AhR]
Settings: for IC50: curve of first compound; for viability, T/C: stronger effect = lower value
Procedure, shortened: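 Agents were dosed in half-log steps down from roughly clinical Cmax, or from 10 microM where Cmax was unknown, alone and with AhR antagonists. Read-out: percent test/control growth of tumor spheroids containing HUVEC and MSC stromal cells.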

[1] = second compound 0.1 µM, first compound 0.0316 µM
[2] = second compound 0.1 µM, first compound 0.1 µM
[3] = second compound 0.316 µM, first compound 0.0316 µM
[4] = second compound 0.316 µM, first compound 0.1 µM
[5] = second compound 1 µM, first compound 0.0316 µM
[6] = second compound 1 µM, first compound 0.1 µM
[7] = second compound 3.16 µM, first compound 0.0316 µM
[8] = second compound 3.16 µM, first compound 0.1 µM
[9] = second compound 10 µM, first compound 0.0316 µM
[10] = second compound 10 µM, first compound 0.1 µM
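Also: spheroids exposed to agents for seven days before luminescence viability read.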
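For viability, T/C in this document: spheroids also contain HUVEC endothelial cells and human MSC stroma.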

Question: What does the source list for `CC[C@@]1(O)C(=O)OCc2c1cc1n(c2=O)Cc2cc3c(CN(C)C)c(O)ccc3nc2-1` + CC(CO)NC(=O)c1cc(-c2ccc(Cl)cc2)nn(-c2cnn(C)c2)c1=O?
Answer: IC50 (second compound 0.1 µM): 24.6 nM; IC50 (second compound 0.316 µM): 16.9 nM; IC50 (second compound 1 µM): 10.6 nM; IC50 (second compound 3.16 µM): 12.2 nM; IC50 (second compound 10 µM): 3.67 nM; viability, T/C (second compound 0.1 µM, first compound 0.000316 µM): 90%; viability, T/C (second compound 0.1 µM, first compound 0.001 µM): 115%; viability, T/C (second compound 0.1 µM, first compound 0.00316 µM): 97.5%; viability, T/C (second compound 0.1 µM, first compound 0.01 µM): 75.7%; viability, T/C [1]: 43.9%; viability, T/C [2]: 16.2%; viability, T/C (second compound 0.316 µM, first compound 0.000316 µM): 136%; viability, T/C (second compound 0.316 µM, first compound 0.001 µM): 118%; viability, T/C (second compound 0.316 µM, first compound 0.00316 µM): 87.8%; viability, T/C (second compound 0.316 µM, first compound 0.01 µM): 60.9%; viability, T/C [3]: 37.7%; viability, T/C [4]: 12.8%; viability, T/C (second compound 1 µM, first compound 0.000316 µM): 118%; viability, T/C (second compound 1 µM, first compound 0.001 µM): 136%; viability, T/C (second compound 1 µM, first compound 0.00316 µM): 72.4%; viability, T/C (second compound 1 µM, first compound 0.01 µM): 57.8%; viability, T/C [5]: 29.3%; viability, T/C [6]: 12.8%; viability, T/C (second compound 3.16 µM, first compound 0.000316 µM): 92.9%; viability, T/C (second compound 3.16 µM, first compound 0.001 µM): 93.2%; viability, T/C (second compound 3.16 µM, first compound 0.00316 µM): 83.4%; viability, T/C (second compound 3.16 µM, first compound 0.01 µM): 56.3%; viability, T/C [7]: 21.9%; viability, T/C [8]: 12.4%; viability, T/C (second compound 10 µM, first compound 0.000316 µM): 51.1%; viability, T/C (second compound 10 µM, first compound 0.001 µM): 65%; viability, T/C (second compound 10 µM, first compound 0.00316 µM): 51.3%; viability, T/C (second compound 10 µM, first compound 0.01 µM): 35%; viability, T/C [9]: 23.1%; viability, T/C [10]: 13.6%

Question: With `CC(C)c1c(-c2ccccc2)nc2c(C#N)c[nH]n2c1=O` + CC(CO)NC(=O)c1cc(-c2ccc(Cl)cc2)nn(-c2cnn(C)c2)c1=O as the compound, how does the IC50 (second compound 0.1 µM) read?
Answer: Its IC50 is > 10000 nM.

Question: What about the IC50 (second compound 0.316 µM) of the same compound?
Answer: The IC50 was > 10000 nM.

Question: And the IC50 (second compound 1 µM)?
Answer: The IC50 was > 10000 nM.

Question: And the IC50 (second compound 3.16 µM)?
Answer: Its IC50 is > 10000 nM.

Question: What about the IC50 (second compound 10 µM) of the same compound?
Answer: Its IC50 is 170 nM.

Question: What about the viability, T/C [1] of the same compound?
Answer: The viability, T/C was 91.8%.

Question: And the viability, T/C [2]?
Answer: The viability, T/C was 66.8%.

Question: What about the viability, T/C (second compound 0.1 µM, first compound 0.316 µM) of the same compound?
Answer: The viability, T/C was 98.2%.

Question: What about the viability, T/C (second compound 0.1 µM, first compound 1 µM) of the same compound?
Answer: The viability, T/C was 68.5%.

Question: What about the viability, T/C (second compound 0.1 µM, first compound 3.16 µM) of the same compound?
Answer: Its viability, T/C is 77%.

Question: What about the viability, T/C (second compound 0.1 µM, first compound 10 µM) of the same compound?
Answer: The viability, T/C was 78%.

Question: And the viability, T/C [3]?
Answer: Its viability, T/C is 66.9%.

Question: What about the viability, T/C [4] of the same compound?
Answer: Its viability, T/C is 93.3%.

Question: And the viability, T/C (second compound 0.316 µM, first compound 0.316 µM)?
Answer: Its viability, T/C is 67.7%.

Question: What about the viability, T/C (second compound 0.316 µM, first compound 1 µM) of the same compound?
Answer: The viability, T/C was 78.7%.

Question: And the viability, T/C (second compound 0.316 µM, first compound 3.16 µM)?
Answer: The viability, T/C was 85.7%.

Question: What about the viability, T/C (second compound 0.316 µM, first compound 10 µM) of the same compound?
Answer: The viability, T/C was 60.8%.

Question: And the viability, T/C [5]?
Answer: Its viability, T/C is 91.3%.

Question: What about the viability, T/C [6] of the same compound?
Answer: The viability, T/C was 70.7%.

Question: And the viability, T/C (second compound 1 µM, first compound 0.316 µM)?
Answer: The viability, T/C was 88.3%.

Question: What about the viability, T/C (second compound 1 µM, first compound 1 µM) of the same compound?
Answer: The viability, T/C was 67.1%.

Question: What about the viability, T/C (second compound 1 µM, first compound 3.16 µM) of the same compound?
Answer: The viability, T/C was 58.2%.

Question: What about the viability, T/C (second compound 1 µM, first compound 10 µM) of the same compound?
Answer: Its viability, T/C is 70.3%.

Question: What about the viability, T/C [7] of the same compound?
Answer: The viability, T/C was 70.3%.

Question: And the viability, T/C [8]?
Answer: Its viability, T/C is 86.2%.

Question: What about the viability, T/C (second compound 3.16 µM, first compound 0.316 µM) of the same compound?
Answer: Its viability, T/C is 71.8%.

Question: And the viability, T/C (second compound 3.16 µM, first compound 1 µM)?
Answer: The viability, T/C was 77.2%.

Question: And the viability, T/C (second compound 3.16 µM, first compound 3.16 µM)?
Answer: The viability, T/C was 56.4%.

Question: What about the viability, T/C (second compound 3.16 µM, first compound 10 µM) of the same compound?
Answer: The viability, T/C was 60.4%.

Question: And the viability, T/C [9]?
Answer: Its viability, T/C is 54.3%.

Question: What about the viability, T/C [10] of the same compound?
Answer: Its viability, T/C is 55.3%.

Question: What about the viability, T/C (second compound 10 µM, first compound 0.316 µM) of the same compound?
Answer: The viability, T/C was 46.5%.

Question: What about the viability, T/C (second compound 10 µM, first compound 1 µM) of the same compound?
Answer: Its viability, T/C is 45%.

Question: And the viability, T/C (second compound 10 µM, first compound 3.16 µM)?
Answer: The viability, T/C was 43.6%.

Question: What about the viability, T/C (second compound 10 µM, first compound 10 µM) of the same compound?
Answer: Its viability, T/C is 45.5%.

Question: What does the source list for `Nc1ncn(C2CC(O)C(CO)S2)c(=O)n1` (stereo not given) + Cc1cncc(-c2nc(NCCc3c[nH]c4ccccc34)c3ncn(C(C)C)c3n2)c1?
Answer: IC50 (second compound 0.1 µM): 133 nM; IC50 (second compound 0.316 µM): 133 nM; IC50 (second compound 1 µM): < 0.949 nM; IC50 (second compound 3.16 µM): 76.2 nM; IC50 (second compound 10 µM): < 0.949 nM; viability, T/C (second compound 0.1 µM, first compound 0.000949 µM): 102%; viability, T/C (second compound 0.1 µM, first compound 0.003 µM): 96.7%; viability, T/C (second compound 0.1 µM, first compound 0.00949 µM): 90.8%; viability, T/C (second compound 0.1 µM, first compound 0.03 µM): 74.5%; viability, T/C (second compound 0.1 µM, first compound 0.0949 µM): 59.3%; viability, T/C (second compound 0.1 µM, first compound 0.3 µM): 30.7%; viability, T/C (second compound 0.316 µM, first compound 0.000949 µM): 88.6%; viability, T/C (second compound 0.316 µM, first compound 0.003 µM): 93.7%; viability, T/C (second compound 0.316 µM, first compound 0.00949 µM): 83%; viability, T/C (second compound 0.316 µM, first compound 0.03 µM): 71.4%; viability, T/C (second compound 0.316 µM, first compound 0.0949 µM): 59.1%; viability, T/C (second compound 0.316 µM, first compound 0.3 µM): 31.8%; viability, T/C (second compound 1 µM, first compound 0.000949 µM): 47.5%; viability, T/C (second compound 1 µM, first compound 0.003 µM): 42.5%; viability, T/C (second compound 1 µM, first compound 0.00949 µM): 38.9%; viability, T/C (second compound 1 µM, first compound 0.03 µM): 37.6%; viability, T/C (second compound 1 µM, first compound 0.0949 µM): 30.4%; viability, T/C (second compound 1 µM, first compound 0.3 µM): 24%; viability, T/C (second compound 3.16 µM, first compound 0.000949 µM): 70%; viability, T/C (second compound 3.16 µM, first compound 0.003 µM): 86.3%; viability, T/C (second compound 3.16 µM, first compound 0.00949 µM): 94.6%; viability, T/C (second compound 3.16 µM, first compound 0.03 µM): 73.6%; viability, T/C (second compound 3.16 µM, first compound 0.0949 µM): 44.7%; viability, T/C (second compound 3.16 µM, first compound 0.3 µM): 30.6%; viability, T/C (second compound 10 µM, first compound 0.000949 µM): 2.25%; viability, T/C (second compound 10 µM, first compound 0.003 µM): 2.66%; viability, T/C (second compound 10 µM, first compound 0.00949 µM): 2.49%; viability, T/C (second compound 10 µM, first compound 0.03 µM): 2.15%; viability, T/C (second compound 10 µM, first compound 0.0949 µM): 2.02%; viability, T/C (second compound 10 µM, first compound 0.3 µM): 2.32%
